Results published in article PMC3226889 (Biochemistry, 2011).

Experiments:
APE1 redox activity = conditions: cell-based studies; ref [15], [17], [21], [23], [48]; cited from earlier work
APE1^ΔN38 = APE1^ΔN38 (Homo sapiens, UniProt P27695); assay: NMR chemical shift perturbation titration; format: binding
p50 (NF-kB subunit) = p50 (NF-kB subunit) (human, UniProt P19838 42-367); assay: EMSA
p50 (NF-kB subunit), sequence (P19838 42-367): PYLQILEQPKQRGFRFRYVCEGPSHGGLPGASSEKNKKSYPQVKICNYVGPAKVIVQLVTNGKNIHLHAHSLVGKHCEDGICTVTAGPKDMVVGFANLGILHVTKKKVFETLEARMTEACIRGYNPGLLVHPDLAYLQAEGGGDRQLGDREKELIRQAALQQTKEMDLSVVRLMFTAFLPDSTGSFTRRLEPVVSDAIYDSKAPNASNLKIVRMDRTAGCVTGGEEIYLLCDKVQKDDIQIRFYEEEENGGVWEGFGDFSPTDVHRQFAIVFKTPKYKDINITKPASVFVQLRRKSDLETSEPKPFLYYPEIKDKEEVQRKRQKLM

APE1^ΔN38, sequence (P27695 39-318): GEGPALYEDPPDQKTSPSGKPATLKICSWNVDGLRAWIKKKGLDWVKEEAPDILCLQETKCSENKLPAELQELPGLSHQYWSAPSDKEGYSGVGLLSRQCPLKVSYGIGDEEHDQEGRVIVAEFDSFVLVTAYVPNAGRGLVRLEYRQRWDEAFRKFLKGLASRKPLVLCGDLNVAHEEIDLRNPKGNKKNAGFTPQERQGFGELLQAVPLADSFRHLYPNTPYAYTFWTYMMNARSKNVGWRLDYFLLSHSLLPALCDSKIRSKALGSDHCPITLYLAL

## CCCCCCCCC/C(=C\C1=C(C)C(=O)C(OC)=C(OC)C1=O)C(=O)O [E3330, (E)-3-[2-(5,6-dimethoxy-3-methyl-1,4-benzoquinonyl)]-2-nonylpropenoic acid]
APE1 redox activity
  E3330 concentrations at which observed effects occur: 5 to 50 µM

## C/C(=C\C1=C(Cl)C(=O)c2ccccc2C1=O)C(=O)O [RN7-60, (E)-3-(3-chloro-1,4-naphthoquinon-2-yl)-2-methylpropenoic acid]
APE1^ΔN38
  Kd: 264 ± 72 µM
APE1^ΔN38; NMR conditions including 0.5 mM DTT
  covalent modification of Cys residues: no evidence for covalent modification of any Cys residue
APE1^ΔN38; similar conditions
  fold tighter affinity of RN7-60 than E3330: about 2 fold

B1: p50 DNA (dsDNA)
DNA 1: AAGGGACTTTCCGCTGGGGATTCCAT
DNA 2: ATGGAATCCCCAGCGGAAAGTCCCTT
modifications: 3'-terminal T of strand 1 is fluorescein-dT (printed as Y)
p50 (NF-kB subunit)
  binding result: binds
